Measurements as given in ChEMBL document CHEMBL1201862, “PubChem BioAssay data set” (2004).
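Where inhibition never reached the appropriate level, the endpoint shown equals the highest concentration tested. Otherwise, values were interpolated linearly from a five-concentration, 48-hour dose response in 96-well plates. Abbreviation: GI50, concentration required for 50% inhibition of growth.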 The source made the active and inactive calls. Rule as the data show it: active = GI50 up to about 1.1 µM and inactive = higher.

Assays:
Test in all cases: NCI anticancer screen, dose series, 48 h
SNB-75 = system: SNB-75
OVCAR-5 = system: OVCAR-5
OVCAR-3 = system: OVCAR-3
DLD-1 = system: DLD-1
XF498 = system: XF498
SNB-19 = system: SNB-19
SNB-78 = system: SNB-78
UACC-62 = system: UACC-62
DMS-273 = system: DMS-273
CCRF-CEM = system: CCRF-CEM
HCC 2998 = system: HCC 2998
M14 = system: M14
HOP-92 = system: HOP-92
SW-620 = system: SW-620
UACC-257 = system: UACC-257
SK-MEL-5 = system: SK-MEL-5
SF-539 = system: SF-539
HOP-18 = system: HOP-18
COLO 205 = system: COLO 205
HCT-15 = system: HCT-15
A549 = system: A549
NCI-H460 = system: NCI-H460
HT-29 = system: HT-29
M19-MEL = system: M19-MEL
UO-31 = system: UO-31
KM-20L2 = system: KM-20L2
LOX IMVI = system: LOX IMVI
EKVX = system: EKVX
SK-MEL-28 = system: SK-MEL-28
NCI-H23 = system: NCI-H23
HL-60 = system: HL-60
LXFL 529 = system: LXFL 529
CAKI-1 = system: CAKI-1
SF-295 = system: SF-295
SK-MEL-2 = system: SK-MEL-2
NCI-H226 = system: NCI-H226
RXF 393 = system: RXF 393
Malme-3M = system: Malme-3M
KM12 = system: KM12
SN12C = system: SN12C
786-0 = system: 786-0
U-251 = system: U-251
SR = system: SR
K562 = system: K562
HCT-116 = system: HCT-116
SF-268 = system: SF-268
RPMI-8226 = system: RPMI-8226
DMS-114 = system: DMS-114
HOP-62 = system: HOP-62
MOLT-4 = system: MOLT-4
NCI-H522 = system: NCI-H522
ACHN = system: ACHN
TK-10 = system: TK-10
SK-OV-3 = system: SK-OV-3
OVCAR-4 = system: OVCAR-4
OVCAR-8 = system: OVCAR-8
A498 = system: A498
IGROV-1 = system: IGROV-1

Compound: COc1cc(C=C2C(=O)NC(=O)NC2=O)cc(OC)c1OC
- GI50 (SNB-75): 80.2 µM (inactive)
- GI50 (OVCAR-5): > 100 µM (inactive)
- GI50 (OVCAR-3): > 100 µM (inactive)
- GI50 (DLD-1): > 100 µM (inactive)
- GI50 (XF498): > 100 µM (inactive)
- GI50 (SNB-19): > 100 µM (inactive)
- GI50 (SNB-78): > 100 µM (inactive)
- GI50 (UACC-62): > 100 µM (inactive)
- GI50 (DMS-273): > 100 µM (inactive)
- GI50 (CCRF-CEM): > 100 µM (inactive)
- GI50 (HCC 2998): > 100 µM (inactive)
- GI50 (M14): > 100 µM (inactive)
- GI50 (HOP-92): > 100 µM (inactive)
- GI50 (SW-620): > 100 µM (inactive)
- GI50 (UACC-257): > 100 µM (inactive)
- GI50 (SK-MEL-5): > 100 µM (inactive)
- GI50 (SF-539): > 100 µM (inactive)
- GI50 (HOP-18): > 100 µM (inactive)
- GI50 (COLO 205): > 100 µM (inactive)
- GI50 (HCT-15): > 100 µM
- GI50 (A549): > 100 µM (inactive)
- GI50 (NCI-H460): > 100 µM (inactive)
- GI50 (HT-29): > 100 µM (inactive)
- GI50 (M19-MEL): > 100 µM (inactive)
- GI50 (UO-31): > 100 µM (inactive)
- GI50 (KM-20L2): > 100 µM (inactive)
- GI50 (LOX IMVI): > 100 µM (inactive)
- GI50 (EKVX): > 100 µM (inactive)
- GI50 (SK-MEL-28): > 100 µM (inactive)
- GI50 (NCI-H23): > 100 µM (inactive)
- GI50 (HL-60): > 100 µM (inactive)
- GI50 (LXFL 529): > 100 µM (inactive)
- GI50 (CAKI-1): > 100 µM (inactive)
- GI50 (SF-295): > 100 µM (inactive)
- GI50 (SK-MEL-2): > 100 µM (inactive)
- GI50 (NCI-H226): > 100 µM (inactive)
- GI50 (RXF 393): > 100 µM (inactive)
- GI50 (Malme-3M): > 100 µM (inactive)
- GI50 (KM12): > 100 µM (inactive)
- GI50 (SN12C): > 100 µM (inactive)
- GI50 (786-0): > 100 µM (inactive)
- GI50 (U-251): > 100 µM (inactive)
- GI50 (SR): > 100 µM (inactive)
- GI50 (K562): > 100 µM (inactive)
- GI50 (HCT-116): > 100 µM (inactive)
- GI50 (SF-268): > 100 µM (inactive)
- GI50 (RPMI-8226): > 100 µM (inactive)
- GI50 (DMS-114): > 100 µM (inactive)
- GI50 (HOP-62): > 100 µM (inactive)
- GI50 (MOLT-4): > 100 µM (inactive)
- GI50 (NCI-H522): > 100 µM (inactive)
- GI50 (ACHN): > 100 µM (inactive)
- GI50 (TK-10): > 100 µM (inactive)
- GI50 (SK-OV-3): > 100 µM (inactive)
- GI50 (OVCAR-4): > 100 µM (inactive)
- GI50 (OVCAR-8): > 100 µM (inactive)

Compound: O=C1[C@@H]2C3C=CC([C@H]4C(=O)N(CO)C(=O)[C@@H]34)[C@@H]2C(=O)N1CO
- GI50 (SNB-75): > 78.2 µM (inactive)
- GI50 (OVCAR-5): > 100 µM (inactive)
- GI50 (OVCAR-3): > 100 µM (inactive)
- GI50 (DLD-1): 48.5 µM (inactive)
- GI50 (XF498): > 100 µM (inactive)
- GI50 (SNB-19): > 100 µM (inactive)
- GI50 (SNB-78): > 100 µM (inactive)
- GI50 (UACC-62): > 76.2 µM (inactive)
- GI50 (DMS-273): > 42.7 µM (inactive)
- GI50 (CCRF-CEM): 25.2 µM (inactive)
- GI50 (HCC 2998): > 70 µM (inactive)
- GI50 (M14): > 50.7 µM (inactive)
- GI50 (HOP-92): > 78.2 µM (inactive)
- GI50 (SW-620): 26.1 µM (inactive)
- GI50 (UACC-257): > 100 µM (inactive)
- GI50 (SK-MEL-5): 59 µM (inactive)
- GI50 (SF-539): 47.3 µM (inactive)
- GI50 (HOP-18): 34 µM (inactive)
- GI50 (A498): > 100 µM (inactive)
- GI50 (COLO 205): > 49.9 µM (inactive)
- GI50 (HCT-15): 25.4 µM
- GI50 (IGROV-1): > 100 µM (inactive)
- GI50 (A549): > 64 µM (inactive)
- GI50 (NCI-H460): 30.2 µM (inactive)
- GI50 (HT-29): 62.8 µM (inactive)
- GI50 (M19-MEL): > 44.9 µM (inactive)
- GI50 (UO-31): > 65.3 µM (inactive)
- GI50 (KM-20L2): > 31.6 µM (inactive)
- GI50 (LOX IMVI): 42.1 µM (inactive)
- GI50 (EKVX): > 100 µM (inactive)
- GI50 (SK-MEL-28): > 63.5 µM (inactive)
- GI50 (NCI-H23): > 92.9 µM (inactive)
- GI50 (HL-60): 24.9 µM (inactive)
- GI50 (LXFL 529): 79.1 µM (inactive)
- GI50 (CAKI-1): > 100 µM (inactive)
- GI50 (SF-295): > 100 µM (inactive)
- GI50 (SK-MEL-2): > 100 µM (inactive)
- GI50 (NCI-H226): > 100 µM (inactive)
- GI50 (RXF 393): > 55.1 µM (inactive)
- GI50 (Malme-3M): > 100 µM (inactive)
- GI50 (KM12): > 64.7 µM (inactive)
- GI50 (SN12C): > 57.5 µM (inactive)
- GI50 (786-0): 41.8 µM (inactive)
- GI50 (U-251): > 56.2 µM (inactive)
- GI50 (K562): 61.2 µM (inactive)
- GI50 (HCT-116): 34.9 µM (inactive)
- GI50 (SF-268): > 49.7 µM (inactive)
- GI50 (RPMI-8226): 19.4 µM (inactive)
- GI50 (DMS-114): 32.1 µM (inactive)
- GI50 (HOP-62): > 100 µM (inactive)
- GI50 (MOLT-4): 34 µM (inactive)
- GI50 (NCI-H522): 34.8 µM (inactive)
- GI50 (ACHN): > 50.7 µM (inactive)
- GI50 (TK-10): > 100 µM (inactive)
- GI50 (SK-OV-3): > 100 µM (inactive)
- GI50 (OVCAR-4): > 75.5 µM (inactive)
- GI50 (OVCAR-8): 35.6 µM (inactive)
